Measured values: US11046651B2, “Piperazine substituted azapine derivatives and uses thereof” (Alairion, Inc., priority 2019, dated 2021)
pKi: −log10 of the molar value.

Experiments:
[1] = biological target: 5-HT2C (Homo sapiens (Human), UniProt P28335); assay: 5-HT2C binding assay ([3H]-Mesulergine, HEK293 membranes); conditions: Table L, class symbols
Experimental: 5-HT2C Binding Assay Protocol
The testing compounds were diluted with DMSO, starting at 2 mM, with 8-points and 5-fold serial dilutions.
1 μL of a compound of the present disclosure the reference compound (Table J) was transferred to an assay plate. […] 1 μL of DMSO was transferred to an assay plate according to the plate map for total binding (High control: HC).
(§1) Unifilter-96 GF/C filter plates were soaked with 50 μL of 0.3% PEI per well for about 0.5 hours at room temperature. When the binding assays were complete, the reaction mixture was filtered through the GF/C filter plates using Perkin Elmer Filtermate Harvester, and each plate was washed 4 times with cold wash buffer. The filter plates were dried for 1 hour at 50° C. After drying, the bottom of the filter plate wells were sealed using Perkin Elmer Unifilter-96 backing seal tape. 50 μL of Perkin Elmer Microscint 20 cocktail was added. The top of the filter plates were sealed with Perkin Elmer TopSeal-A sealing film.
(§2) ^3H trapped on filters were counted using Perkin Elmer MicroBeta2 Reader. Inhibition constants were calculated using the following equation:
[formula] The data was analyzed using Prism 5. The model used was “log(inhibitor) vs. response—Variable slope” to fit the data and calculate IC50. The IC50 was then converted to Ki using the following equation: Ki=IC50/(1+L/Kd), wherein L is the radioligand concentration in the reaction system; Kd is the affinity of radioligand to the receptor.

[2] = biological target: H1 (Homo sapiens (Human), UniProt P35367); assay: H1 binding assay ([3H]pyrilamine, HEK293 stable cell line membranes)
Sequence of H1 (P35367 whole entry): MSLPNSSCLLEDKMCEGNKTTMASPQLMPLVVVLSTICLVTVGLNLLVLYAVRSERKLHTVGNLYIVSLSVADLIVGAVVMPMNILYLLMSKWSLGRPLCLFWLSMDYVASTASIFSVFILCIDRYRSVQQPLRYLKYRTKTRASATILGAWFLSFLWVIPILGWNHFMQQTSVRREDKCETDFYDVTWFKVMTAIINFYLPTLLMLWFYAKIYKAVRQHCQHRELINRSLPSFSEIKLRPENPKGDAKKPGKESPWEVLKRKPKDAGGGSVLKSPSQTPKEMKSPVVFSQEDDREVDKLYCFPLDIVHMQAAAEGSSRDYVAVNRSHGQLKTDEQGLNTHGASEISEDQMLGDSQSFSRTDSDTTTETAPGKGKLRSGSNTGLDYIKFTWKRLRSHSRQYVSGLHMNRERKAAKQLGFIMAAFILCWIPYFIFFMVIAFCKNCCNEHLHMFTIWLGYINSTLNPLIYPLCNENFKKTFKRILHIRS
Experimental: Example 25. H1 and 5-HT2A Binding Assay Protocol
(§3) The testing compounds were diluted with DMSO, starting at 2 mM, with 8-points and 5-fold serial dilutions. Ketanserin and Pyrilamine were diluted with DMSO, starting at 0.2 mM, with 8-points and 5-fold serial dilution.
(§4) 1 μl of a compounds of the present disclosure and either reference compound (Table C) were transferred to assay plates. 1 μl of 0.2 mM Ketanserin or Pyrilamine was transferred to an assay plate according to the plate map for nonspecific binding (Low control: LC). 1 μl of DMSO was transferred to an assay plate according to plate map for total binding (High control: HC).
(§5) 100 μlof membrane stocks were dispensed into the plates, following the plate map. 100 of radio ligand was added. The plates were sealed and shaken at 300 rpm at room temperature for 1 hour. The Unifilter-96 GF/C filter plates were soaked with 50 of 0.3% PEI per well for at least 0.5 hour at room temperature.
as §1, with “When” for “Unifilter-96 GF/C filter plates were soaked with 50 μL of 0.3% PEI per well for about 0.5 hours at room temperature. When”, “through” for “through the”, “GF/C” for “GF/C filter”, “and then” for “and”, “50 degrees.” for “50° C.”, “μl” for “μL”
as §2
(§6) [formula] The data was analyzed using Prism 5. The model used was “log(inhibitor) vs. response—Variable slope” to fit the data and calculate IC50. The IC50 was then converted to Ki using following equation: Ki=IC50/(1+L/Kd). L is the radioligand concentration in the reaction system; Kd is the affinity of radioligand to the receptor.

[3] = biological target: 5-HT2A (Homo sapiens (Human), UniProt P28223); assay: 5-HT2A binding assay ([3H]-Ketanserin, HEK293 stable cell line membranes)
Sequence of 5-HT2A (P28223 whole entry, species assumed): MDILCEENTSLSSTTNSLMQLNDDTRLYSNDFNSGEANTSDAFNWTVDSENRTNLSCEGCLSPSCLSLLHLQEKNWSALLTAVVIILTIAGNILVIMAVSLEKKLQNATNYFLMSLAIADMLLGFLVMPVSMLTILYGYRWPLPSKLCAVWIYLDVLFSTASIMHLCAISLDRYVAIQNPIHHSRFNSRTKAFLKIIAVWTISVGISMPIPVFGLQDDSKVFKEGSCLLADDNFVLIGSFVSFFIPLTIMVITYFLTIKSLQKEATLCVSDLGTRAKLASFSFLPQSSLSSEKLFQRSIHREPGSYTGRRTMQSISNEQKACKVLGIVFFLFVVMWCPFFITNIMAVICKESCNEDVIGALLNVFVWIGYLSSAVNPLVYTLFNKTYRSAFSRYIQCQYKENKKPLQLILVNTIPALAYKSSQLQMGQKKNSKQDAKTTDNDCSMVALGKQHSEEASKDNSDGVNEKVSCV
Experimental: H1 and 5-HT2A Binding Assay Protocol
as §3, §4, §5
as §1, with “When” for “Unifilter-96 GF/C filter plates were soaked with 50 μL of 0.3% PEI per well for about 0.5 hours at room temperature. When”, “through” for “through the”, “GF/C” for “GF/C filter”, “and then” for “and”, “50 degrees.” for “50° C.”, “μl” for “μL”
as §2, §6

Sequence of 5-HT2C (P28335 33-458): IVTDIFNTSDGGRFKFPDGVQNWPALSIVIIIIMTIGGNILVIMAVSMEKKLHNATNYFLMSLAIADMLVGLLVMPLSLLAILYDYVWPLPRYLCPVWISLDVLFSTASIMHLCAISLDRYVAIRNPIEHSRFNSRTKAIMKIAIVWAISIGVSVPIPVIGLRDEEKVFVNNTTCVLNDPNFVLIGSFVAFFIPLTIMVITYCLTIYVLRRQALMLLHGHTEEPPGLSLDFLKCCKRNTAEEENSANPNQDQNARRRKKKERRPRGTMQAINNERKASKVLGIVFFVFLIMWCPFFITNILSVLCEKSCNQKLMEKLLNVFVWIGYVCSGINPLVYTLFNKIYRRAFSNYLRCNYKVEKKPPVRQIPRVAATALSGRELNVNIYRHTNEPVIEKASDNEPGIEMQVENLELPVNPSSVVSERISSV

Row | Structure (SMILES) | pKi [1] | pKi ([2]; Table E, class symbols) | pKi ([3]; Table F, class symbols) | pKi ([2]; numeric values) | pKi ([3]; numeric values)
1 | Cc1ccc2c(c1)N=C(N1CCN(CC(C)(C)C(=O)O)CC1)c1ccc(C(F)F)cc1O2 [compound 33, 3-(4-(3-(difluoromethyl)-8-methyldibenzo[b,f][1,4]oxazepin-11-yl)piperazin-1-yl)-2,2-dimethylpropanoic acid] | > 7.00 |  |  |  | 
2 | Cc1ccc2c(c1)Oc1cc(F)ccc1N=C2N1CCN(CC2(C(=O)O)CC2)CC1 [Compound No. 18, 1-((4-(7-fluoro-3-methyldibenzo[b,f][1,4]oxazepin-11-yl)piperazin-1-yl)methyl)cyclopropane-1-carboxylic acid] |  | 7.60 to 9.00 | 7.30 to 7.60 |  | 
3 | CC(CN1CCN(C2=Nc3ccccc3Cc3ccccc32)CC1)C(=O)O (stereo not shown) [A-1, 3-(4-(11H-dibenzo[b,e]azepin-6-yl)piperazin-1-yl)-2-methylpropanoic acid, reference compound] |  |  |  | 6.98 | 5.86
4 | Cc1ccc2c(c1)Oc1ccc(F)cc1N=C2N1CCN(CC(C)(C)C(=O)O)CC1 [compound 28, 3-(4-(8-fluoro-3-methyldibenzo[b,f][1,4]oxazepin-11-yl)piperazin-1-yl)-2,2-dimethylpropanoic acid] | 6.30 to 7.00 |  |  |  | 
5 | CCc1ccc2c(c1)Oc1cc(C)ccc1N=C2N1CCN(CC2(C(=O)O)CC2)CC1 [Compound No. 14, 1-((4-(3-ethyl-7-methyldibenzo[b,f][1,4]oxazepin-11-yl)piperazin-1-yl)methyl)cyclopropane-1-carboxylic acid] |  | < 7.30 | 7.60 to 9.00 |  | 
6 | COc1ccc2c(c1)Oc1cc(Cl)ccc1N=C2N1CCN(CC(C)(C)C(=O)O)CC1 [Compound No. 20, 3-(4-(7-chloro-3-methoxydibenzo[b,f][1,4]oxazepin-11-yl)piperazin-1-yl)-2,2-dimethylpropanoic acid] |  | < 7.30 | 7.30 to 7.60 |  | 
7 | Cc1ccc2c(c1)Cc1ccccc1C(N1CCN(CC(C)(C)C(=O)O)CC1)=N2 [Compound No. 38, 2,2-dimethyl-3-(4-(2-methyl-11H-dibenzo[b,e]azepin-6-yl)piperazin-1-yl)propanoic acid] | > 7.00 | < 7.30 | < 7.30 |  | 
8 | CC(C)(CN1CCN(C2=Nc3cc(F)ccc3Oc3cc(F)ccc32)CC1)C(=O)O [compound 31, 3-(4-(3,8-difluorodibenzo[b,f][1,4]oxazepin-11-yl)piperazin-1-yl)-2,2-dimethylpropanoic acid] | > 7.00 |  |  |  | 
9 | CCCc1ccc2c(c1)Oc1cc(Cl)ccc1N=C2N1CCN(CC(C)(C)C(=O)O)CC1 [Compound No. 5, 3-(4-(7-chloro-3-propyldibenzo[b,f][1,4]oxazepin-11-yl)piperazin-1-yl)-2,2-dimethylpropanoic acid] |  | 7.30 to 7.60 | 7.60 to 9.00 |  | 
10 | O=C(O)C1(CN2CCN(C3=Nc4ccc(F)cc4Oc4cc(F)ccc43)CC2)CC1 [Compound No. 10, 1-((4-(3,7-difluorodibenzo[b,f][1,4]oxazepin-11-yl)piperazin-1-yl)methyl)cyclopropane-1-carboxylic acid] |  | 7.60 to 9.00 | 7.60 to 9.00 |  | 
11 | CCc1ccc2c(c1)Oc1cc(Cl)ccc1N=C2N1CCN(CC(C)(C)C(=O)O)CC1 [Compound No. 3, 3-(4-(7-chloro-3-ethyldibenzo[b,f][1,4]oxazepin-11-yl)piperazin-1-yl)-2,2-dimethylpropanoic acid] |  | 7.30 to 7.60 | 7.60 to 9.00 |  | 
12 | Cc1ccc2c(c1)Oc1cc(Cl)ccc1N=C2N1CCN(CC2(C(=O)O)CC2)CC1 [Compound No. 13, 1-((4-(7-chloro-3-methyldibenzo[b,f][1,4]oxazepin-11-yl)piperazin-1-yl)methyl)cyclopropane-1-carboxylic acid] |  | 7.30 to 7.60 | 7.60 to 9.00 |  | 
13 | CC(C)(CN1CCN(C2=Nc3ccccc3Oc3cccc(F)c32)CC1)C(=O)O [Compound No. 39, 3-(4-(1-fluorodibenzo[b,f][1,4]oxazepin-11-yl)piperazin-1-yl)-2,2-dimethylpropanoic acid] | > 7.00 | < 7.30 | < 7.30 |  | 
14 | COc1ccc2c(c1)Oc1cc(F)ccc1N=C2N1CCN(CC(C)(C)C(=O)O)CC1 [Compound No. 21, 3-(4-(7-fluoro-3-methoxydibenzo[b,f][1,4]oxazepin-11-yl)piperazin-1-yl)-2,2-dimethylpropanoic acid] |  | < 7.30 | 7.30 to 7.60 |  | 
15 | CC(C)c1ccc2c(c1)Oc1cc(Cl)ccc1N=C2N1CCN(CC(C)(C)C(=O)O)CC1 [Compound No. 2, 3-(4-(7-chloro-3-isopropyldibenzo[b,f][1,4]oxazepin-11-yl)piperazin-1-yl)-2,2-dimethylpropanoic acid] |  | 7.30 to 7.60 | 7.60 to 9.00 |  | 
16 | Cc1ccc2c(c1)Oc1cc(C(F)F)ccc1N=C2N1CCN(CC(C)(C)C(=O)O)CC1 [Compound No. 16, 3-(4-(7-(difluoromethyl)-3-methyldibenzo[b,f][1,4]oxazepin-11-yl)piperazin-1-yl)-2,2-dimethylpropanoic acid] |  | < 7.30 | < 7.30 |  | 
17 | CSc1ccc2c(c1)Oc1cc(Cl)ccc1N=C2N1CCN(CC(C)(C)C(=O)O)CC1 [Compound No. 4, 3-(4-(7-chloro-3-(methylthio)dibenzo[b,f][1,4]oxazepin-11-yl)piperazin-1-yl)-2,2-dimethylpropanoic acid] |  | 7.60 to 9.00 | 7.60 to 9.00 |  | 
18 | Cc1ccc2c(c1)C(N1CCN(CC(C)(C)C(=O)O)CC1)=Nc1cc(Cl)ccc1O2 [compound 34, 3-(4-(8-chloro-2-methyldibenzo[b,f][1,4]oxazepin-11-yl)piperazin-1-yl)-2,2-dimethylpropanoic acid] | > 7.00 |  |  |  | 
19 | Cc1ccc2c(c1)Oc1cc(F)ccc1C(N1CCN(CC3(C(=O)O)CC3)CC1)=N2 [Compound No. 19, 1-((4-(3-fluoro-7-methyldibenzo[b,f][1,4]oxazepin-11-yl)piperazin-1-yl)methyl)cyclopropane-1-carboxylic acid] |  | 7.30 to 7.60 | 7.60 to 9.00 |  | 
20 | CC(C)(CN1CCN(C2=Nc3ccc(F)cc3Oc3cc(F)ccc32)CC1)C(=O)O [Compound No. 11, 3-(4-(3,7-difluorodibenzo[b,f][1,4]oxazepin-11-yl)piperazin-1-yl)-2,2-dimethylpropanoic acid] |  | < 7.30 | 7.60 to 9.00 |  | 
21 | Cc1ccc2c(c1)Oc1cc(Cl)ccc1N=C2N1CCN(CC(C)(C)C(=O)O)CC1 [Compound No. 1, 3-(4-(7-chloro-3-methyldibenzo[b,f][1,4]oxazepin-11-yl)piperazin-1-yl)-2,2-dimethylpropanoic acid] | < 6.30 | 7.60 to 9.00 | 7.60 to 9.00 |  | 
22 | Cc1ccc2c(c1)Oc1cc(F)ccc1C(N1CCN(CC(C)(C)C(=O)O)CC1)=N2 [Compound No. 17, 3-(4-(3-fluoro-7-methyldibenzo[b,f][1,4]oxazepin-11-yl)piperazin-1-yl)-2,2-dimethylpropanoic acid] |  | 7.60 to 9.00 | 7.60 to 9.00 |  | 
23 | Cc1ccc2c(c1)Oc1cc(C)ccc1C(N1CCN(CC3(C(=O)O)CC3)CC1)=N2 [Compound No. 9, 1-((4-(3,7-dimethyldibenzo[b,f][1,4]oxazepin-11-yl)piperazin-1-yl)methyl)cyclopropane-1-carboxylic acid] |  | < 7.30 | 7.60 to 9.00 |  | 
24 | COc1ccc2c(c1)C(N1CCN(CC(C)(C)C(=O)O)CC1)=Nc1cc(Cl)ccc1O2 [compound 35, 3-(4-(8-chloro-2-methoxydibenzo[b,f][1,4]oxazepin-11-yl)piperazin-1-yl)-2,2-dimethylpropanoic acid] | 6.30 to 7.00 |  |  |  | 
25 | O=C(O)C1(CN2CCN(C3=Nc4ccccc4Cc4ccccc43)CC2)CC1 [Compound No. 12, 1-((4-(11H-dibenzo[b,e]azepin-6-yl)piperazin-1-yl)methyl)cyclopropane-1-carboxylic acid] |  | 7.60 to 9.00 | < 7.30 |  | 
26 | Cc1ccc2c(c1)Oc1ccc(Cl)cc1N=C2N1CCN(CC(C)(C)C(=O)O)CC1 [compound 29, 3-(4-(8-chloro-3-methyldibenzo[b,f][1,4]oxazepin-11-yl)piperazin-1-yl)-2,2-dimethylpropanoic acid] | > 7.00 |  |  |  | 
